How the values were obtained:
pHER2 = biological target: T1, pHER2 (Homo sapiens, UniProt P04626); assay: pHER2 IHC (PD) in SC xenograft tumor tissue after single dose; type: in vivo, mice
T1 construct: from tissue; host or cells: subcutaneous BT474C1-Luci Mono1 xenograft tumour tissue from nude mice
Experimental: The subcutaneous xenograft tissues were collected from mice after a single dose of vehicle or DZD1516. Samples were snap-frozen for analysis. Tissues from animals were analyzed at each time point IHC was performed on 5 μm frozen sections using a Ventana discovery XT automation (Roche) for pHER2 (Catalog #) IHC staining. The stained IHC slides were firstly reviewed and interpreted by a qualified pathologist and then quantified by the Imagescope software of Aperio system. The “H” score quantified by Aperio system will be corrected by a pathologist. Statistical analysis was performed by t-test.

P-gp (MDR1) = biological target: T2, P-gp (MDR1) (Homo sapiens, UniProt P08183); assay: P-gp efflux ratio, bi-directional transport assay; type: in vitro ADME
T2 construct: expressed in transfected cells; host or cells: MDCKII-MDR1
From the text: Passive permeability (Papp) characterizes the rate across the cell membrane due to passive diffusion. A high permeability enables the rapid establishment of equilibrium among plasma, CSF, and brain compartments. Except for passive permeability, sufficient unbound drug concentration in the brain is governed by efflux transporters, including P-gp (MDR1, ABCB1) and BCRP, at BBB. Efflux ratio (ER) reflects the liability of a compound to be pumped out of the brain by BBB efflux transporters, which is indicated by the distribution disequilibrium between the plasma and the brain compartments.
[…] The adjusted efflux ratio was used to determine if DZD1516/DZ2678 underwent active efflux. Verapamil, a P-glycoprotein (P-gp) inhibitor, was used to identify if any active transport processes were mediated through P-gp. The apical-to-basolateral (A-B) and basolateral-to-apical (B-A) transport of DZD1516/DZ2678 in HBSS (25 mM HEPES, pH 7.4) with 0.1% BSA was measured across MDCKII-MDR1 cell monolayers in the absence and presence of the P-gp inhibitor, verapamil (100 μM). The apical-to-basolateral (A-B) and basolateral-to-apical (B-A) transport of DZD1516/DZ2678 in HBSS (25 mM HEPES, pH 7.4) with 0.1% BSA was also measured across MDCKII cell monolayers in the absence and presence of the P-gp inhibitor, verapamil. Incubations were performed at approximately 37°C for 120 min, with the functionality of the test system being confirmed using 5 μM digoxin as a positive control substrate. […] determined by quantifying substrate concentration in the incubation medium of the donor compartment at the beginning of the incubation period and both donor and receiver compartments at the end of the incubation period. The data was used to calculate the apparent permeability (Papp). All incubations were performed in triplicate, and the integrity of the cell monolayers was confirmed using the marker Lucifer yellow.

[1] = In vivo CNS-PK study in monkey; conditions: female, cynomolgus monkey, CSF (relative to unbound plasma/blood), single PO dose of DZD1516 30 mg/kg
Experimental: The ability of DZD1516 and DZ2678 to cross the BBB in female Wistar Han rat and female Cynomolgus monkey was studied by assessing the free brain-to-plasma ratio (Kp,uu,brain) and CSF-to-free plasma ratio (Kp,uu,CSF). Total brain-to-blood ratio (Kp,brain) and CSF-to-blood ratio (Kp,CSF) were measured from six time points after oral administration. Free fractions of DZD1516 and DZ2678 in the biological matrix were determined by in vitro plasma and brain binding assay.
Kp,brain= AUCbrain/AUCblood. Kp,CSF was the average of the CSF-to-blood ratios at the evaluated time points. Kp,uu,brain= Kp,brain× fu,brain/fu,blood; Kpuu,CSF= Kp,CSF/fu,blood.
Three female Cynomolgus monkeys were administered with a single PO dose of DZD1516 at 30 mg/kg. The PO dosing formulation was a suspension in 0.5% HPMC E5 in water (w/v). Plasma and CSF samples were collected at 0.5, 1, 2, 4, 8, and 24 hrs post-dose. The concentrations of DZD1516 and metabolite DZ2678 in monkey plasma and CSF were determined by the validated LC-MS/MS method.

HER2 = HER2 (Homo sapiens, UniProt P04626); assay: In vitro HER2 enzymatic assay (Lance Ultra Kinase Assay); type: biochemical; parameters: purchased Thermo Fisher PR4918A; conditions: recombinant HER2, 2 mM ATP; read-out: IC50 against HER2 in the enzymatic assay
Experimental: Recombinant HER2 was purchased from Thermo Fisher (Cat. # PR4918A). The inhibition potency of compounds against HER2 enzyme was assessed using Lance Ultra Kinase Assay.
In brief, recombinant kinases were pre-incubated in the presence or absence of the compound at room temperature for 30 minutes. The reaction was initiated by the addition of the ATP and substrate peptide. After 60 minutes of incubation, the reaction was stopped by the addition of the detection reagent mix containing EDTA. The fluorescence was measured at 615 nm and 665 nm, respectively, with excitation wavelength at 320 nm. The calculated signal ratio of 665 nm/615 nm is proportional to the kinase activity.

[2] = biological target: potassium ion-channel hERG (Homo sapiens, UniProt Q12809); assay: hERG in vitro safety pharmacology; type: biochemical
potassium ion-channel hERG, sequence (Q12809 whole entry): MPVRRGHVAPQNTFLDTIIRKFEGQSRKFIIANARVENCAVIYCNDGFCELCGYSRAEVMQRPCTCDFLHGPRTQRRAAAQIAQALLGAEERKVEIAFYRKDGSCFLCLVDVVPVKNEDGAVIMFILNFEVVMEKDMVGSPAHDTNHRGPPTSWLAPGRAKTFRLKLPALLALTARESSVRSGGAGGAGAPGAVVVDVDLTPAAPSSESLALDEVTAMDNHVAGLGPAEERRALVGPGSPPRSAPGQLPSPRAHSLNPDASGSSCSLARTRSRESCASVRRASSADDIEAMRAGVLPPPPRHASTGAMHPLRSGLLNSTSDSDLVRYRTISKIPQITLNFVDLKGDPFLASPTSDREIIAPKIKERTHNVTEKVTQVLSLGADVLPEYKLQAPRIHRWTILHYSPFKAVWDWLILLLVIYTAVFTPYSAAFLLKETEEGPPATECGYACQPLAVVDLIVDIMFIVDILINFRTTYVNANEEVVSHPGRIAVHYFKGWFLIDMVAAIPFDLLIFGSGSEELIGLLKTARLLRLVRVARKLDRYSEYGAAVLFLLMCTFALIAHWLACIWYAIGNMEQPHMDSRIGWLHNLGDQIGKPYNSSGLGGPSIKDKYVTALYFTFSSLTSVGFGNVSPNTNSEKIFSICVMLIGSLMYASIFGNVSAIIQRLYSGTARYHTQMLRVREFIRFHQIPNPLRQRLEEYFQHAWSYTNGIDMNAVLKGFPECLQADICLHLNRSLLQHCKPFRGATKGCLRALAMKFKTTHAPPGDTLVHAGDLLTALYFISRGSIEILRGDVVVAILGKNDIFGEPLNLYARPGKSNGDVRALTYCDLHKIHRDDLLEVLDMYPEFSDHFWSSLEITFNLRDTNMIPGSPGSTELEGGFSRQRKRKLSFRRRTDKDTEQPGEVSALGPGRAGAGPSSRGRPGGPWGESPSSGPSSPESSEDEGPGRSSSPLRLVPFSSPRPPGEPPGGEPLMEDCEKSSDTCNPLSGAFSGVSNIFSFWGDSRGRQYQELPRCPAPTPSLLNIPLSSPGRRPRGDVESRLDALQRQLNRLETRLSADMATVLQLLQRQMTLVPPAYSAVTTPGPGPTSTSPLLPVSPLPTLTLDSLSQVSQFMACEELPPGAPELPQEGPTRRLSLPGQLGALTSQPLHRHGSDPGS

T1 sequence (P04626 23-1255): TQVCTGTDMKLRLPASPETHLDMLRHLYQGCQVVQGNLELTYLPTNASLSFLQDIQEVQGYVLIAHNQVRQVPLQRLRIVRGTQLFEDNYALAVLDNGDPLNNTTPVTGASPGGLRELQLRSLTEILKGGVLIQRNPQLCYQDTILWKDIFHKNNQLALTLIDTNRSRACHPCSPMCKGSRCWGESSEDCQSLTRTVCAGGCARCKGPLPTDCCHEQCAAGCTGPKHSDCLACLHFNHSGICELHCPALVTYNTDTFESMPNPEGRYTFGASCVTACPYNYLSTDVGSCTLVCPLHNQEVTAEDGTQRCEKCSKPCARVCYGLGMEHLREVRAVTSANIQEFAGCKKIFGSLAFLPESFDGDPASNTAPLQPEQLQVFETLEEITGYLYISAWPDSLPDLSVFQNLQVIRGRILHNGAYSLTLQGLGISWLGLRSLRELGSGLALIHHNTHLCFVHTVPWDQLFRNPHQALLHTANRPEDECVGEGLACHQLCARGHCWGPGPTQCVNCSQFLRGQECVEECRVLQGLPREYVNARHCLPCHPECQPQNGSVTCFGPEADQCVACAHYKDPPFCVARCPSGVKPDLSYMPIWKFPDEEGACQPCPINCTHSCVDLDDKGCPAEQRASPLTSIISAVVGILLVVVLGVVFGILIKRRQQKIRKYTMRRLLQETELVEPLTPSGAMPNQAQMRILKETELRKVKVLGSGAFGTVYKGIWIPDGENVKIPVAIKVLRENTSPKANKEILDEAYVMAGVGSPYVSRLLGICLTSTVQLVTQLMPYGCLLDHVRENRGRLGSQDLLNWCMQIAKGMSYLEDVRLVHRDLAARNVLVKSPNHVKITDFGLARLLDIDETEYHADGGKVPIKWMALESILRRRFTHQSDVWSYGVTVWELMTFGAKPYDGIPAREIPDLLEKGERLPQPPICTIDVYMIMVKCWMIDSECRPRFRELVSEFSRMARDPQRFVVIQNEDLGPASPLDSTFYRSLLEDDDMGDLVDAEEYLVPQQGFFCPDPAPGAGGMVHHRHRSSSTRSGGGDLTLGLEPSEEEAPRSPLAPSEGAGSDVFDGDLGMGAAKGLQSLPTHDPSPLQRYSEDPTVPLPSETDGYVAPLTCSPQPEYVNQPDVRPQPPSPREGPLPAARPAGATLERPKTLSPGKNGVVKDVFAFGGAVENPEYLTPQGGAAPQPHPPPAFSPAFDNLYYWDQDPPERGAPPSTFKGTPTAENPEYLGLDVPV
T2 sequence (P08183 whole entry): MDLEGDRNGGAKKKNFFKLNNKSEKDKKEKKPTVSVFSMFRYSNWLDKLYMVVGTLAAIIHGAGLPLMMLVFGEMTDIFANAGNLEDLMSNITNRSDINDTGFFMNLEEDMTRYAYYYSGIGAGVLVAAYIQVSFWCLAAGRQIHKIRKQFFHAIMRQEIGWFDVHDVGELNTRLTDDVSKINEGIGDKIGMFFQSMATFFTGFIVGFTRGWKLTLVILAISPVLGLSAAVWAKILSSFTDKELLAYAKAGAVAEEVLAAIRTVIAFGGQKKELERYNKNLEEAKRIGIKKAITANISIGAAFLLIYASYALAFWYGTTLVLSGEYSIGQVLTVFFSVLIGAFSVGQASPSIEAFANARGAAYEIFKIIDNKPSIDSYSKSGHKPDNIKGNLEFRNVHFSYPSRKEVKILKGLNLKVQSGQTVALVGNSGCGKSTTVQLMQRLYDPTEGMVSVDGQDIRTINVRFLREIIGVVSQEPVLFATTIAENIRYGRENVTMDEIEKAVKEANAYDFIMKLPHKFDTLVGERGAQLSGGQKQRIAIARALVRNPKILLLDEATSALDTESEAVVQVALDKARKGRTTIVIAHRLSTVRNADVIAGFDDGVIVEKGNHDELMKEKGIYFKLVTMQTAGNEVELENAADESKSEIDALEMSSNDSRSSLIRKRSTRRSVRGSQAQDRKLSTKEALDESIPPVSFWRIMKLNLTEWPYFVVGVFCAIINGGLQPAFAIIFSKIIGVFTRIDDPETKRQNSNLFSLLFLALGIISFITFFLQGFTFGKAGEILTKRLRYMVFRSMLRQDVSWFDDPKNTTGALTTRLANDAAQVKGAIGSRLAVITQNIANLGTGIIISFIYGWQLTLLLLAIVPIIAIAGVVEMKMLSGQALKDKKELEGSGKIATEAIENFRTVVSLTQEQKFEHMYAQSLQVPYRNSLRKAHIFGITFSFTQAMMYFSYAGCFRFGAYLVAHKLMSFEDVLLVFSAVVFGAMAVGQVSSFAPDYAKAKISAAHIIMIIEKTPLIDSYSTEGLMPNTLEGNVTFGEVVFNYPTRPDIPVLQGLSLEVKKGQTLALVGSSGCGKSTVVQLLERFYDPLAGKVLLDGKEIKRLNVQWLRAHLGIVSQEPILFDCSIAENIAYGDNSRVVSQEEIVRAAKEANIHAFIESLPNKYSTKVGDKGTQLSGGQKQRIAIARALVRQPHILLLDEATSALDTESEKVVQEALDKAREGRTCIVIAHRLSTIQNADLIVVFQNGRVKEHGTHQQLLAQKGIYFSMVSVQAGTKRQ
HER2, sequence (P04626 23-1255): as the sequence (P04626 23-1255) above

COc1cc(O[C@H]2CCN(C)CC2(F)F)c2c(Nc3ccc(Oc4ccn5ncnc5c4)c(C)c3)ncnc2c1 [DZD1516]
inhibition at 50 mg/kg (pHER2; mouse, single dose 50 mg/kg, 0.25 h): > 94%
inhibition at 150 mg/kg (pHER2; mouse, single dose 150 mg/kg): 89%
duration of pHER2 inhibition (pHER2; single dose 50 mg/kg): 6 h
duration of pHER2 inhibition (pHER2; single dose 150 mg/kg): 24 h
efflux ratio at 120 min, 1 µM (P-gp (MDR1); human, MDCK-MDR1, pH 7.4): < 2
Efflux ratio P-gp @1 µM (P-gp (MDR1); listed as Cpd-5): 1.6
Kp uu [1]: 4.1
IC50 (HER2): 0.56 nM
IC50 [2]: 3290 nM

From publication PMC10327353 (Breast Cancer Research : BCR, 2023)
